Measured values published in US4221782A (priority 1978, dated 1980).
Where two headings read alike, the source gives them in different places.

Columns and labels:
stickleback [1] = test: Exploratory test with azidotrimethylsilicane; format: in vivo; details: relative to other azides
threespine stickleback = system: threespine stickleback; design: species or system Gasterosteus aculeatus; details: in vivo
chinook salmon = test: Example 4: LC0 of chinook, artesian well water, 96-hour bioassays; format: in vivo, O. tschawytscha; details: for LC0 of chinook: artesian well water, 96-hour
Description: The desirable fishes tested in bioassays included the sockeye salmon (Oncorhynchus nerka), chinook salmon, (O. tschawytscha) and the steelhead, a sea-run variety of rainbow trout (Salmo gairdneri).

[2] = system: freshwater races of rainbow trout; test: Toxicity to rainbow trout, 96-hour bioassays; format: in vivo, Salmo gairdneri
redside shiner = test: Toxicity to redside shiner, 96-hour bioassays; format: in vivo, Richardsonius balteatus
bridgelip sucker = test: Toxicity to bridgelip sucker, 96-hour bioassays; format: in vivo, Catastomus columbianus
rats [3] = details: cited from earlier work
torrent sculpin = test: Toxicity to torrent sculpin, 96-hour bioassays; format: in vivo, Cottus rotheus
sockeye [4] = details: in vivo
cutthroat trout = test: Toxicity to cutthroat trout, 96-hour bioassays; format: in vivo, Salmo clarki
[5] = Example 5: survival/recovery of sockeye after exposure to sodium azide, 20-day bioassays; format: in vivo, Oncorhynchus nerka; details: sockeye salmon, in vivo; exposed for 16 hours or less; end of 20-day bioassays
Description: (§1) Stickleback subjected to the same test conditions experienced almost 100% mortality.

sockeye [6] = test: as above; format: in vivo, Oncorhynchus nerka; details: exposed for 16 hours or less
Description: as §1

rats [7] = test: Lowest published lethal oral dose in rats (1974 Toxic Substances List); format: in vivo, rat; details: water treated at 1 mg/l of azide
Description: It would be impossible for a bird or mammal to drink enough water when treated at 1 mg/l of azide for the azide to harm the animal. To drink a lethal dose, an animal would have to drink 46 times its weight in water. Nevertheless safety precautions should be taken when handling the chemical.

speckled dace = test: Toxicity to speckled dace, 96-hour bioassays; format: in vivo, Rhinichthys cataractae
stickleback [8] = system: stickleback
Description: For field applications the concentration of NaN3 or N3 -- would vary with water quality--mainly with regard to dissolved solid and hydrogen ion concentrations. […] For the treatment of rivers and shorelines of lakes the concentrations of azide that would be used would be those that would kill stickleback in 12 to 24 hours.

sockeye salmon = system: sockeye salmon
Description: Fingerling sockeye salmon in artesian water were exposed to a concentration of 5 mg/l of potassium azide for 24 hours at a temperature of 15 degrees Celsius.
Ten sockeye (length range, 55-93 mm) were assigned to each of four aquaria (load, 2.7 g/l) and concentrations of chemicals were added as indicated in Table 8. The time of mortality was noted.

stickleback [9] = system: stickleback; remark: listed apart in the source
Description: For water with different chemistry and for application of different concentrations of the azide the delay time of application of deactivator could vary.

[10] = system: threespine stickleback and sockeye salmon; details: increases in temperature
Description: Delineation bioassays determined primarily the LC50 and LC100 of stickleback and the LC0 and LC50 of salmonids.
Stickleback (mean length, 44 mm) and sockeye (mean length, 74 mm) in artesian well water were treated with various concentrations of potassium azide in laboratory facilities for 96 hours at 5, 10 and 15 degrees Celsius to determine approximate selectivity and safety indices.

[11] = up to 5.0 mg/l in artesian well water

Compound: C[Si](C)(C)N=[N+]=[N-] [azidotrimethylsilicane]
- biological activity/potency and selectivity of the azide radical in organic compounds (stickleback [1]): equally biologically active or potent and equally selective

Compound: [Ca+2].[I-].[I-] [calcium iodide]
- azide neutralizing effectiveness (threespine stickleback): neutralized azide more effectively than calcium chloride
- toxicity of azide in standing water and duration of its potency (threespine stickleback): can be controlled

Compound: [N-]=[N+]=[N-] [sodium azide]
- LC0 of chinook salmon compared with sockeye and steelhead (chinook salmon; allowing for the 0.8 differential): substantially greater than that of sockeye and steelhead
- LC0 of chinook (chinook salmon; 5° C.): 10.0 mg/L
- LC0 of chinook (chinook salmon; 10° C.): 8.0 mg/L
- LC0 of chinook (chinook salmon; 15° C.): 8.0 mg/L
- toxicity ([2]; up to 1.5 mg/l in river water): not toxic
- toxicity [2, 11]: not toxic
- toxicity (redside shiner; up to 1.5 mg/l in river water): not toxic
- toxicity (redside shiner; [11]): not toxic
- toxicity (bridgelip sucker; up to 1.5 mg/l in river water): not toxic
- toxicity (bridgelip sucker; [11]): not toxic
- LDL0, oral (lowest published lethal dose) (rats [3]): 46 mg for 2 kg of rat
- toxicity (torrent sculpin; up to 1.5 mg/l in river water): not toxic
- toxicity (torrent sculpin; [11]): not toxic
- mean times of death at about equal equivalents (sockeye [4]): about equal mean times of death
- toxicity (cutthroat trout; up to 1.5 mg/l in river water): not toxic
- toxicity (cutthroat trout; [11]): not toxic
- survival at 480 h [5]: 100%
- recovery of sockeye from ill effects (sockeye [6]): complete recovered from any ill effects
- amount of water to drink for a lethal dose (rats [7]): 46 times its weight
- toxicity (speckled dace; up to 1.5 mg/l in river water): not toxic
- toxicity (speckled dace; [11]): not toxic
- toxicity to fish in river water as opposed to artesian water (stickleback [8]; allowing for the 0.8 differential between sodium and potassium azide): about 5 times
- LC100 of stickleback (stickleback [8]; river water, 96-hour bioassays, 15 degrees Celsius): 0.34 mg/L

Compound: [Cl][Sn][Cl] [stannous chloride]
- toxicity of azide in standing water and duration of its potency (threespine stickleback): can be controlled

Compound: calcium chloride
- Survival time (sockeye salmon; 3.5 mg/l calcium chloride (1 equivalent weight) after 24 h at 5 mg/l potassium azide): 90 h
- Survival time (sockeye salmon; 7.0 mg/l calcium chloride (2 equivalent weights) after 24 h at 5 mg/l potassium azide): 112 h
- Survival time (sockeye salmon; 14.0 mg/l calcium chloride (4 equivalent weights) after 24 h at 5 mg/l potassium azide): 148 h
- effect on mortality of sockeye exposed to 5 mg/l potassium azide for 24 hours (sockeye salmon; 1, 2, 4, and 8 equivalent weights): delayed the mortality
- survival of all sockeye in the azide (sockeye salmon; 8 equivalents of calcium chloride): complete survival of all sockeye
- Survival time (sockeye salmon; […] calcium chloride (8 equivalent weights) after 24 h at 5 mg/l potassium azide): Did not die
- toxicity of azide in standing water and duration of its potency (threespine stickleback): can be controlled
- delay in application of calcium chloride necessary for maximizing the kill of stickleback (stickleback [9]; 5 mg/l potassium azide, artesian water): 2 h
- death time for stickleback (stickleback [9]; calcium chloride and potassium azide added about simultaneously): about doubled

Compound: potassium azide
- effect of temperature on toxicity [10]: marked increase in the toxicity
